Experimental findings from patent EP0790237B1, “BICYCLOLACTAM COMPOUNDS, USE OF THE SAME AND INTERMEDIATE IN THE PRODUCTION OF THE SAME” (TAIHO PHARMACEUTICAL CO., LTD., priority 1995, dated 1996) are described below.

Each structure is given as a SMILES string.

In data set [1] the test system is ddY mice. The experiment in a line: Anticonvulsant effect (pentylenetetrazol-induced convulsion method). The data set is classed as in vivo. Conditions: for anticonvulsant effect: dose of 300 mg/kg, oral, male ddY mice; for ED50: Mus musculus, po, 1 h, read-out: ED50 (anticonvulsant effect). The protocol: (§1) Compound 1'a-1, the comparison compound, diazepam or buspirone was suspended in a 0.5 % sodium carboxymethyl cellulose solution, and the suspension was orally administered to 3- to 4-week-old male ddY mice (in groups of 6) in a volume of 10 ml/kg one hour before the start of experiment.
The test was conducted with reference to a method described in "Evaluation of Medicinal Efficacies (1), Pharmacological Test Method (I), Basic Lectures on Development of Pharmaceuticals," 167∼ 172(1971).

Data set [2] has as its system ddY mice. In words: Acute toxicity test. It is filed as in vivo. The settings on record: oral, 6 male ddY mice, observed for 3 days. An excerpt:
Five-week-old male ddY mice were used in groups of 6. […]

Data set [3] deals with ddY mice. The settings on record: mouse, in vivo, po, 300 mg/kg. As to the method:
(§2) Compound 1'a-1, the comparison compound, diazepam or buspirone was suspended in a 0.5 % sodium carboxymethyl cellulose solution, and the suspension was orally administered to 3- to 4-week-old male ddY mice (in groups of 5) in a volume of 10 ml/kg one hour before the start of experiment.
The test was conducted with reference to a method described in "Evaluation of Medicinal Efficacies (1), Pharmacological Test Method (I ), Basic Lectures on Development of Pharmaceuticals," 50∼ 54(1971). More specifically, the group of mice were given the test drug and thereafter measured the amount of spontaneous locomotor activity for 10 minutes per mouse using Animex MK-110 (Muromachi Kikai Co., Ltd.).

Another data set concerns Wistar rats. The experiment in a line: Anticonflict test (water drinking behavior under electroshock). The data set is classed as in vivo. The settings on record: oral; for Relieving rate of anxiety: one hour before experiment, male Wistar rats; for anxiolytic effect (in words): dose of 1.0 mg/kg. The protocol: Wistar rats (males weighing 140 to 160 g) were used for experiment in groups of 11 to 14.
Compound 1'a-1, 1'a-5, 1'b-1, 1'''-8, 1'''-9, the above comparison compound, diazepam or buspirone was suspended in a 0.5 % sodium carboxymethyl cellulose solution, and the suspension was orally given to the animal in a volume of 5 ml/kg one hour before the start of experiment.
With reference to a method described in "Process in Anxiolytics and Antidepressants," edited by Showa Ueki and Tatsuo Furukawa, Ishiyaku Shuppansha, 56∼ 59 (1981), the agents were tested using experimental boxes having grid floor and a metal drinking tube in the floor. No water was supplied to the rats for 48 hours before the experiment. Upon lapse of first 24 hours, each group of rats were placed into the experimental box, permitted access to water for 30 seconds and caused to recognize the metal drinking tube. Upon lapse of further 24 hours with access to water prevented, the rats were placed into the box again and permitted access to water on condition that an electric current was passed between the metal drinking tube and the grid to give an electroshock for every 20 times of water drinking behavior to measure the frequency of water drinking behavior for 3 minutes. Anxiolytic effect was evaluated as relieving rate of anxiety as calculated by the following equation. Relieving rate of anxiety = (C-B)/(A-B) × 100 [formula] • A: Frequency of water drinking behavior of a control group without an electroshock and no anxiety (frequency under no punishment) • B: Frequency of water drinking behavior of a group with an electroshock and anxiety (under punishment) and having been administerd a solvent containing no test compound (frequency under solvent-control group) • C: Frequency of water drinking behavior of a group having been administered a test compound and relieved anxiety (frequency under test compound-administered group) Table 7

In data set [4] the test system is ddY mice. The settings on record: mouse, in vivo, po, 300 mg/kg. The protocol: as §1
The test was conducted with reference to a method described in Japan. J. Pharmacol., 49, 337∼ 349(1989). More specifically, the group of mice were intraperitoneally given 25 % ethanol at a dose of 20 ml/kg and checked for the time interval between loss and recovery of the righting reflex.
This is another data set of the same source.

Data set [5] deals with ddY mice. Conditions: mouse, in vivo, po, 300 mg/kg. As to the method: as §2
With reference to a method described in Japan. J. Pharmacol., 49. 337∼ 349(1989), the foreleg of the mouse was hung on a horizontal wire, having a diameter of 1.2 mm and fixed at a level of 30 cm, three times consecutively. […] Thus, ED50 was determined for evaluation.
This is another data set of the same source.

Turning to `O=C1CC2CCCCC2N1` (stereo not shown) [Comparison Compound, 2-azabicyclo[3.4.0]nonane-3-one], the anticonvulsant effect entry in the data set on ddY mice [1] is listed as “no anticonvulsant effect”. The Number of death in the data set with ddY mice [2] (dose 2000 mg/kg) came out at 1; in the data set with ddY mice [2] (dose 3000 mg/kg), 5. Besides, in the data set on ddY mice [3], the sedative effect entry is reported as “no sedative effect”. The “Relieving rate of anxiety” value is given as 43% with Wistar rats (dose 0.01 mg/kg), 44% with Wistar rats (dose 0.1 mg/kg) and 46% with Wistar rats (dose 1.0 mg/kg). In the data set on Wistar rats (doses of 0.01 to 0.1 mg/kg), the decreased anxiety entry is on record as “up to 50%”. In addition, in the data set with ddY mice [4], the ethanol enhancing effect result is listed as “no ethanol enhancing effect”. Also, the muscle relaxant effect entry in the data set on ddY mice [5] is “no muscle relaxant effect”.
As to `O=C1CC2(CCCC2)CC(=O)N1CCCCN1CCN(c2ncccn2)CC1` [Buspirone], the ED50 in the data set on ddY mice [1] was at least 300 mg/kg. In the data set on Wistar rats (dose 1.0 mg/kg), the “Relieving rate of anxiety” value is 2%. Also, the “anxiolytic effect (in words)” value in the data set with Wistar rats is given as “almost ineffective”.
The matching figures for `CN1C(=O)CN=C(c2ccccc2)c2cc(Cl)ccc21` [Diazepam]: 0.35 mg/kg, -3% and “almost ineffective”.
As to `COc1ccc(C(=O)N2C(=O)CC[C@H]3[C@H](O)CC[C@H]32)cc1` (racemic) [Compound 1'a-1, (1RS, 6RS, 7RS)-7-hydroxy-2-(4-methoxybenzoyl)-2-azabicyclo-[4.3.0]nonan-3-one], in the data set with ddY mice [1], the anticonvulsant effect result was “no anticonvulsant effect”. The Number of death with ddY mice [2] (dose 2000 mg/kg) came to 0; in the data set on ddY mice [2] (dose 3000 mg/kg) it was 2. In addition, the sedative effect result in the data set with ddY mice [3] is “no sedative effect”. The “Relieving rate of anxiety” value in the data set on Wistar rats (dose 0.01 mg/kg) amounted to 93%; in the data set with Wistar rats (dose 0.1 mg/kg), 86%; in the data set on Wistar rats (dose 1.0 mg/kg), 76%. In addition, the ethanol enhancing effect entry in the data set with ddY mice [4] is reported as “no ethanol enhancing effect”. For the same compound, the muscle relaxant effect result in the data set with ddY mice [5] is on record as “no muscle relaxant effect”.
